Measurements published in patent US20240315243A1, “A COMBINATION OF FLU[…] SEAWEED EXTRACT” (priority 2021, published 2024).

Columns and labels:
Helicoverpa armigera [1] = experiment: Whole plant greenhouse assay, binary mixture, Helicoverpa armigera; type: in vivo; details: tomato plants, 3rd instar larva, 72 hours; flubendiamide 30 GAH, Ascophyllum nodosum 120 GAH, solo or mixture 30 + 120 (1:4)
Text: (§1) 25 to 30 days old tomato plants were used for the treatments.

Spodoptera litura [2] = experiment: Whole plant greenhouse assay, binary mixture, Spodoptera litura; type: in vivo; details: tomato plants, 3rd instar larva, 72 hours; flubendiamide 30 GAH, Ascophyllum nodosum 120 GAH, solo or mixture 30 + 120 (1:4)
Text: as §1

Spodoptera litura [3] = experiment: Field experiment, binary mixture, Spodoptera litura in tomato crop; type: in vivo
Text: (§2) The tomato seedlings were transplanted and all the recommended package of practices for tomato farming was followed in the experiment, except for plant protection chemicals. […] Vigor descriptive scale was totally based on visual observations.

tomato crop [4] = experiment: Field experiment, binary mixture, vigor rating of tomato crop; type: in vivo
Text: (§3) The expected activity for a given combination of two active compounds (binary composition) can be calculated as follows: […]
(§4) In which E represents the expected percentage of inhibition of the disease for the combination of two pesticides at defined doses (for example equal to x and y respectively), x is the percentage of inhibition observed for the disease by the compound (1) at a given dose (equal to x), y is the percentage of inhibition observed for the disease by the compound (2) at a defined dose (equal to y).
as §2

tomato crop [5] = experiment: Field experiment, binary mixture, yield of tomato fruits; type: in vivo; details: flubendiamide 30 GAH, Ascophyllum nodosum 120 GAH, solo or mixture 30 + 120 (1:4)
Text: as §3, §4, §2

Helicoverpa armigera [6] = experiment: Whole plant greenhouse assay, 3-way mixture, Helicoverpa armigera; details: tomato plants, 3rd instar larva, 72 hours; flubendiamide 30 GAH, profenofos 480 GAH, Ascophyllum Nodosum 120 GAH, solo or mixtures (1:16, 4:1, 1:16:4)
Procedure: (§5) The action expected for a given combination of two or three active components can be calculated as follows: […]
(§6) The experiments were carried out to study synergies if any in terms of the use of insecticides (Flubendiamide & Profenofos) and Ascophyllum Nodosum extract mixture at ratio 1:16:4 and 1:16:6 for the control of insect pest and phytotonic effect, if any.
(§7) The whole plant assay was conducted in the greenhouse, in which the desired quantity of the compounds (Flubendiamide, Profenofos and Ascophyllum Nodosum extract) and mixture in the ratio of 1:16:4 and 1:16:6 were prepared. 40-45 days old tomato plants were used for the treatments. Prepared compounds (Table 7) were sprayed in the booth of Generation III research sprayer (to obtain uniformity in spray) with a delivery rate of about 500 L/hectare of spray solution through flat fan nozzle. After the treatment, the plants were allowed to dry and then moved to the laboratory. The treated plants were covered with a mylar sheet for restricting the larval movement. Single starved 3rd instar larva was released on to the plants individually and mylar sheet was covered at the top with a muslin cloth for better air ventilation. The observation on dead, moribund and alive larvae was recorded at 72 hours after the treatment.

Spodoptera litura [7] = experiment: Whole plant greenhouse assay, 3-way mixture, Spodoptera litura; details: tomato plants, 3rd instar larva, 72 hours; flubendiamide 30 GAH, profenofos 480 GAH, Ascophyllum Nodosum 120 GAH, solo or mixtures (1:16, 1:4, 4:1, 1:16:4)
Procedure: as §5, §6
as §7, with “and mylar was covered” for “and mylar sheet was covered”

Thrips = experiment: Whole plant greenhouse assay, 3-way mixture, Thrips; details: brinjal plants, thrips nymph, 72 hours; flubendiamide 30 GAH, profenofos 480 GAH, Ascophyllum Nodosum 120 GAH, solo or mixtures (1:16, 1:4, 4:1, 1:16:4)
Procedure: as §5, §6
as §7, with “days old brinjal plants were” for “days old tomato plants were”, “larval movement. Nymph of thrips was released” for “larval movement. Single starved 3rd instar larva was released”, “and mylar was covered” for “and mylar sheet was covered”

Spodoptera litura [8] = experiment: Field experiment, 3-way mixture, Spodoptera litura in tomato crop; details: 7 Day after application, flubendiamide 30 GAH, profenofos 480 GAH, Ascophyllum Nodosum 120 GAH, solo or mixtures (1:16, 1:16:4)
Procedure: as §5
(§8) The Field experiment was conducted at PI Industries Limited, Agricultural Research Station, Hyderabad to evaluate the efficacy of mixture of Flubendiamide, Profenofos and Ascophyllum Nodosum against Spodoptera litura in tomato crop. The tomato seedlings were transplanted and all the recommended packages of practices for tomato farming were followed in the experiment, except for plant protection chemicals. The ratio of Flubendiamide, Profenofos and Ascophyllum Nodosum mixture was 1:16:4 and 1:16:6 and the experiment was carried out in plots of 5×5 m in a randomized block design with three replications for each treatment. The applications were done with the help of a knapsack sprayer having a delivery of about 500 L/hectare. Care was taken to avoid drift of spray solution to adjacent experimental plots. Assessment of all the treatments was done for vigor, phytotoxicity and insect control. Observation on the insect larval count per plot from fifteen randomly selected plants was recorded at one day before and on 7 Day after application. […] Vigor descriptive scale was totally based on visual observations. For vigor comparison among treatments, untreated plots were considered as 100 percent and based on that rating was given to other treatments.

tomato crop [9] = experiment: Field experiment, 3-way mixture, vigor rating of tomato crop; type: in vivo; details: for plant vigor compared with control (visual observation): field, tomato crop; for Vigor rating: visual rating, untreated plots = 100 percent, flubendiamide 30 GAH, profenofos 480 GAH, Ascophyllum Nodosum 120 GAH, solo or mixtures (1:16, 1:4, 4:1, 1:16:4)
Text: Vigor descriptive scale was totally based on visual observations.

tomato crop [10] = experiment: Field experiment, 3-way mixture, yield of tomato fruits; type: in vivo; details: flubendiamide 30 GAH, profenofos 480 GAH, Ascophyllum Nodosum 120 GAH, solo or mixtures (1:4, 4:1, 1:16:4)
Procedure: as §5, §8

SMILES | % mortality (Helicoverpa armigera [1]) [%] | % mortality (Spodoptera litura [2]) [%] | efficacy against Spodoptera litura in tomato (in words) (Spodoptera litura [3]; 30 GAH) | Spodoptera litura (% control) 7 DAA (Spodoptera litura [3]; tomato, 7 DAA, flubendiamide 30 GAH, Ascophyllum nodosum 120 GAH, solo or mixture 30 + 120 (1:4)) [%] | Spodoptera litura (% control) 10 DAA (Spodoptera litura [3]; tomato, 10 DAA, flubendiamide 30 GAH, Ascophyllum nodosum 120 GAH, solo or mixture 30 + 120 (1:4)) [%] | plant vigor compared with control (visual observation) (tomato crop [4]; field, tomato crop) | Vigor (tomato crop [4]; visual rating, untreated plots = 100 percent, flubendiamide 30 GAH, Ascophyllum nodosum 120 GAH, solo or mixture 30 + 120 (1:4)) | Yield of tomato fruits, Ton/ha (observed) (tomato crop [5]) [Ton/ha] | Observed % mortality (Helicoverpa armigera [6]) [%] | Observed % mortality (Spodoptera litura [7]) [%] | Observed % mortality (Thrips) [%] | Observed % mortality (Spodoptera litura [8]) [%] | plant vigor compared with control (visual observation) (tomato crop [9]) | Vigor rating (tomato crop [9]) | Observed yield (ton/hectare) of tomato fruits (tomato crop [10]) [ton/hectare]
Cc1cc(C(F)(C(F)(F)F)C(F)(F)F)ccc1NC(=O)c1cccc(I)c1C(=O)NC(C)(C)CS(C)(=O)=O [Flubendiamide, 3-iodo-N′-(2-mesyl-1,1-dimethylethyl)-N-{4-[1,2,2,2-tetrafluoro-1-(trifluoromethyl)ethyl]-o-tolyl}phthalamide] | 70 | 70 | effectively controlled the insect pests | 66.67 | 70.00 | good plant vigor | 110 | 60.16 | 65 | 72 | 8 | 72.7 | good plant vigor | 125 | 64.20
CCCSP(=O)(OCC)Oc1ccc(Br)cc1Cl (stereo not shown) [Profenofos, profenofos] |  |  |  |  |  |  |  |  | 50 | 52 | 72 | 55.6 | good plant vigor | 120 | 56.95
